In patent publication US7811599B2, “Pharmaceutical combinations comprising a fungicide, a bacteriostatic sulphonamide and an antibacterial compound for topical application” (priority 2001, dated 2010):
Converted amounts (≈) assume the structure as drawn.

How the values were obtained:
Type in all cases: cell-based
[1] = system: Escherichia coli; assay: MIC values of active ingredients (in nutrient liquid); conditions: Table I
Method: (§1) The experiments are carried out in an ambience free of germs. […] The following compounds were tested: azithromycin, clarithromycin, erythromycin, miconazole, […]-sulphate. Test organisms: Bacteria: Escherichia coli, Pseudomonas aeruginosa, Serratia marcescens, Staphylococcus aureus, Streprococcus pyogenes. Fungi: Aspergillus flavus, Fusarium oxysporum, Candida albicans, Candida parapsilosus. Nutrient media: Soye bouillon, Sabouraud nutrient liquor. Solvents: methanol a.r. and for […]-sulphate the mixture of butanol:ethanol:water in the ratio of 1:1:2. Negative control: nutrient medium exempt of test organisms. Positive control: nutrient medium and 10 μL of the inoculum. Following preparation of the inoculum and incubation the MIC values were determined according to the above.

[2] = system: Pseudomonas aeruginosa; assay: as above; conditions: Table I
Method: as §1

[3] = system: Serratia marcescens; assay: as above; conditions: Table I
Method: as §1

[4] = system: Staphylococcus aureus; assay: as above; conditions: Table I
Method: as §1

[5] = system: Streptococcus pyogenes; assay: as above; conditions: Table I
Method: as §1

[6] = system: Aspergillus flavus; assay: as above; conditions: Table I
Method: as §1, with “For fungi: Sabouraud nutrient liquid containing glucose, […] digested casein and water. The experiments” for “The experiments”

[7] = system: Candida albicans; assay: as above; conditions: Table I
Method: as §1, with “For fungi: Sabouraud nutrient liquid containing glucose, […] digested casein and water. The experiments” for “The experiments”

[8] = system: Candida parapsilosis; assay: as above; conditions: Table I; for MIC: Lodderomyces parapsilosis
Method: as §1, with “For fungi: Sabouraud nutrient liquid containing glucose, […] digested casein and water. The experiments” for “The experiments”

[9] = system: Fusarium oxysporum; assay: as above; conditions: Table I
Method: as §1, with “For fungi: Sabouraud nutrient liquid containing glucose, […] digested casein and water. The experiments” for “The experiments”

[10] = system: all tested bacteria and fungi; assay: MIC values of active ingredients on 9 different microbe strains, summary in words; conditions: summary of Table I
Method: For fungi: Sabouraud nutrient liquid containing glucose, tripsine digested casein and water.
The experiments are carried out in an ambience free of germs.
The following compounds were tested: azithromycin, clarithromycin, erythromycin, miconazole, primicin-sulphate. Test organisms: Bacteria: Escherichia coli, Pseudomonas aeruginosa, Serratia marcescens, Staphylococcus aureus, Streprococcus pyogenes. Fungi: Aspergillus flavus, Fusarium oxysporum, Candida albicans, Candida parapsilosus. Nutrient media: Soye bouillon, Sabouraud nutrient liquor. Solvents: methanol a.r. and for primicin-sulphate the mixture of butanol:ethanol:water in the ratio of 1:1:2. Negative control: nutrient medium exempt of test organisms. Positive control: nutrient medium and 10 μL of the inoculum.
Following preparation of the inoculum and incubation the MIC values were determined according to the above.

Compound	MIC [1] [µg/mL]	MIC [2] [µg/mL]	MIC [3] [µg/mL]	MIC [4] [µg/mL]	MIC [5] [µg/mL]	MIC [6] [µg/mL]	MIC [7] [µg/mL]	MIC [8] [µg/mL]	MIC [9] [µg/mL]	activity in the MIC test, in words [10]	MIC values [1]	MIC values [2]	MIC values [3]	MIC values [4] [µg/mL]	MIC values [5] [µg/mL]	MIC values [6]	MIC values [7] [µg/mL]	MIC values [8] [µg/mL]	MIC values [9]
CC[C@H]1OC(=O)[C@H](C)[C@@H](O[C@H]2C[C@@](C)(OC)[C@@H](O)[C@H](C)O2)[C@H](C)[C@@H](O[C@@H]2O[C@H](C)C[C@H](N(C)C)[C@H]2O)[C@](C)(O)C[C@@H](C)CN(C)[C@H](C)[C@@H](O)[C@]1(C)O [azithromycin]	6 (≈ 8.01 µM)	65 (≈ 86.8 µM)	8 (≈ 10.7 µM)	2 (≈ 2.67 µM)	3 (≈ 4.01 µM)	> 500	> 500	500 (≈ 668 µM)	> 500	effective on all tested bacteria									
CC[C@H]1OC(=O)[C@H](C)[C@@H](O[C@H]2C[C@@](C)(OC)[C@@H](O)[C@H](C)O2)[C@H](C)[C@@H](O[C@@H]2O[C@H](C)C[C@H](N(C)C)[C@H]2O)[C@](C)(OC)C[C@@H](C)C(=O)[C@H](C)[C@@H](O)[C@]1(C)O [clarithromycin]	95 (≈ 127 µM)	80 (≈ 107 µM)	100 (≈ 134 µM)	0.2 (≈ 0.267 µM)	1 (≈ 1.34 µM)	> 100	> 100	> 100	> 100										
CC[C@H]1OC(=O)[C@H](C)[C@@H](O[C@H]2C[C@@](C)(OC)[C@@H](O)[C@H](C)O2)[C@H](C)[C@@H](O[C@@H]2O[C@H](C)C[C@H](N(C)C)[C@H]2O)[C@](C)(O)C[C@@H](C)C(=O)[C@H](C)[C@@H](O)[C@]1(C)O [erythromycin]	100 (≈ 136 µM)	90 (≈ 123 µM)	300 (≈ 409 µM)	1 (≈ 1.36 µM)	3 (≈ 4.09 µM)	> 500	> 500	500 (≈ 681 µM)	> 500										
Clc1ccc(COC(Cn2ccnc2)c2ccc(Cl)cc2Cl)c(Cl)c1 (stereo not drawn) [miconazole]	> 500	> 500	> 500	3 (≈ 7.21 µM)	0.5 (≈ 1.2 µM)	2 (≈ 4.81 µM)	0.5 (≈ 1.2 µM)	0.2 (≈ 0.481 µM)	> 8	inhibits all tested fungi and cocci									
primycin										acceptably active against Candida type fungi but not against all tested bacteria	100< μg/ml	100< μg/ml	100< μg/ml	0.2	0.5	100< μg/ml	18	5.0	100< μg/ml
